Calls of active or inactive are those of the source. No cut-off for these calls is given here.
How the values were obtained:
PANC-1 [1] = assay: Cytotoxicity against human PANC1 cells assessed as reduction in metabolic activity at 20 nM after 24 to 72 hrs in dark followed by photoirradiation in presence of NADH by resazurin assay; format: functional, cell-based
HEK293 = assay: Cytotoxicity against human HEK293 cells assessed as reduction in metabolic activity after 24 to 72 hrs in dark followed by photoirradiation in presence of NADH by resazurin assay; format: ADME, cell-based
[2] = Binding affinity to NRAS RNA g-quadruplex (unknown origin) at 40 degree C by SPR analysis; format: nucleic-acid assay
MIA PaCa-2 = assay: Cytotoxicity against human MIAPaCa2 cells harboring G12C point mutation assessed as reduction in metabolic activity after 48 hrs in dark followed by photoirradiation in presence of NADH by resazurin assay; format: functional, cell-based
PANC-1 [3] = assay: Cytotoxicity against human PANC1 cells assessed as reduction in metabolic activity after 48 hrs in dark followed by photoirradiation in presence of NADH by resazurin assay; format: functional, cell-based; settings: PANC-1, light or radiation study
PANC-1 [4] = assay: Cytotoxicity against human PANC1 cells assessed as reduction in metabolic activity at 20 nM after 24 to 72 hrs in dark followed by photoirradiation in presence of NADH and NAC by resazurin assay; format: functional, cell-based
Quadruplex DNA [5] = assay: Binding affinity to human KRAS utr-z RNA g-quadruplex at 40 degree C by SPR analysis; format: nucleic-acid assay
[6] = Drug localization in cytoplasm of human PANC1 cells at 5 uM after 6 hrs by Hoechst staining based confocal microscopy; format: ADME, subcellular; settings: panc-1, 6 h
PANC-1 [7] = assay: Induction of apoptosis in human PANC1 cells assessed as necrotic cells at 15 nM and photoirradiated at 7.2 J/cm2 measured after 6 to 24 hrs by annexin-V-propidium iodide staining based FACScalibur flow cytometry analysis (reference value: 3.2 %); format: functional
[8] = Drug uptake in human PANC1 cells at 5 uM and 4 degree C after 16 hrs by FACS analysis relative to 37 degree C; format: ADME, cell-based; settings: panc-1, 16 h
[9] = Drug uptake in human PANC1 cells in presence of dynamin-inhibitor dynasore; format: ADME, cell-based; settings: panc-1
PANC-1 [10] = assay: Induction of apoptosis in human PANC1 cells assessed as necrotic cells at 10 nM and photoirradiated at 7.2 J/cm2 measured after 6 to 24 hrs by annexin-V-propidium iodide staining based FACScalibur flow cytometry analysis (reference value: 3.2 %); format: functional
[11] = Drug uptake in human PANC1 cells at 5 uM after 16 hrs by FACS analysis; format: ADME, cell-based; settings: panc-1, 16 h
PANC-1 [12] = assay: Induction of apoptosis in human PANC1 cells assessed as early apoptotic cells at 10 nM and photoirradiated at 7.2 J/cm2 measured after 6 to 24 hrs by annexin-V-propidium iodide staining based FACScalibur flow cytometry analysis (reference value: 7.8 %); format: functional
PANC-1 [13] = assay: Induction of apoptosis in human PANC1 cells assessed as late apoptotic cells at 10 nM and photoirradiated at 7.2 J/cm2 measured after 6 to 24 hrs by annexin-V-propidium iodide staining based FACScalibur flow cytometry analysis (reference value: 3.6 %); format: functional
[14] = target: GTPase KRas (Homo sapiens) (UniProt P01116); assay: Inhibition of KRAS in human PANC1 cells assessed as downregulation of KRAS expression at 15 nM after 4 hrs by Western blot analysis; format: cell-based
[15] = Drug uptake in human HEK293 cells at 5 uM and 4 degree C after 16 hrs by FACS analysis relative to 37 degree C; format: ADME, cell-based; settings: hek293, 16 h
PANC-1 [16] = assay: Induction of apoptosis in human PANC1 cells assessed as viable cells at 10 nM and photoirradiated at 7.2 J/cm2 measured after 6 to 24 hrs by annexin-V-propidium iodide staining based FACScalibur flow cytometry analysis (reference value: 85.5 %); format: functional; settings: PANC-1, light or radiation study, read-out: Activity
PANC-1 [17] = assay: Induction of apoptosis in human PANC1 cells assessed as early apoptotic cells at 15 nM and photoirradiated at 7.2 J/cm2 measured after 6 to 24 hrs by annexin-V-propidium iodide staining based FACScalibur flow cytometry analysis (reference value: 7.8 %); format: functional
[18] = target: GTPase NRas (Homo sapiens) (UniProt P01111); assay: Inhibition of NRAS in human PANC1 cells assessed as downregulation of NRAS expression at 15 nM after 4 hrs by Western blot analysis; format: cell-based
PANC-1 [19] = assay: Induction of apoptosis in human PANC1 cells assessed as viable cells at 15 nM and photoirradiated at 7.2 J/cm2 measured after 6 to 24 hrs by annexin-V-propidium iodide staining based FACScalibur flow cytometry analysis (reference value: 85.5 %); format: functional; settings: PANC-1, light or radiation study, read-out: Activity
[20] = target: GTPase NRas (Homo sapiens) (UniProt P01111); assay: Inhibition of NRAS in human PANC1 cells assessed as decrease in NRAS mRNA level at 15 nM followed by 7.2 J/cm2 irradiation after 4 hrs by qRT-PCR analysis; format: cell-based
[21] = Aggregation property of compound at > 40 degree C; format: physicochemical
Quadruplex DNA [22] = assay: Binding affinity to NRAS RNA g-quadruplex (unknown origin) by fluorescence spectroscopy; format: nucleic-acid assay
[23] = target: GTPase KRas (Homo sapiens) (UniProt P01116); assay: Inhibition of KRAS in human PANC1 cells assessed as downregulation of KRAS expression at 15 nM followed by 7.2 J/cm2 irradiation after 4 hrs by Western blot analysis (reference value: 5 %); format: cell-based
Quadruplex DNA [24] = assay: Binding affinity to human KRAS utr-z RNA g-quadruplex by fluorescence spectroscopy; format: nucleic-acid assay
PANC-1 [25] = assay: Induction of apoptosis in human PANC1 cells assessed as necrotic cells at 5 nM and photoirradiated at 7.2 J/cm2 measured after 6 to 24 hrs by annexin-V-propidium iodide staining based FACScalibur flow cytometry analysis (reference value: 3.2 %); format: functional
PANC-1 [26] = assay: Induction of apoptosis in human PANC1 cells assessed as late apoptotic cells at 15 nM and photoirradiated at 7.2 J/cm2 measured after 6 to 24 hrs by annexin-V-propidium iodide staining based FACScalibur flow cytometry analysis (reference value: 3.6 %); format: functional
[27] = target: GTPase KRas (Homo sapiens) (UniProt P01116); assay: Inhibition of KRAS in human PANC1 cells assessed as decrease in KRAS mRNA level at 15 nM followed by 7.2 J/cm2 irradiation after 4 hrs by qRT-PCR analysis; format: cell-based
PANC-1 [28] = assay: Induction of apoptosis in human PANC1 cells assessed as early apoptotic cells at 5 nM and photoirradiated at 7.2 J/cm2 measured after 6 to 24 hrs by annexin-V-propidium iodide staining based FACScalibur flow cytometry analysis (reference value: 7.8 %); format: functional
[29] = Drug uptake in human PANC1 cells at 5 uM after 2 hrs by FACS analysis; format: ADME, cell-based; settings: panc-1, 2 h
PANC-1 [30] = assay: Induction of apoptosis in human PANC1 cells assessed as cleavage of caspase 3 when photoirradiated at 7.2 J/cm2 by Western blot analysis; format: functional, cell-based
PANC-1 [31] = assay: Induction of apoptosis in human PANC1 cells assessed as viable cells at 5 nM and photoirradiated at 7.2 J/cm2 measured after 6 to 24 hrs by annexin-V-propidium iodide staining based FACScalibur flow cytometry analysis (reference value: 85.5 %); format: functional; settings: PANC-1, light or radiation study, read-out: Activity
[32] = target: GTPase NRas (Homo sapiens) (UniProt P01111); assay: Inhibition of NRAS in human PANC1 cells assessed as downregulation of NRAS expression at 15 nM followed by 7.2 J/cm2 irradiation after 4 hrs by Western blot analysis (reference value: 25 %); format: cell-based
PANC-1 [33] = assay: Induction of apoptosis in human PANC1 cells assessed as cleavage of caspase 7 when photoirradiated at 7.2 J/cm2 by Western blot analysis; format: functional, cell-based
PANC-1 [34] = assay: Induction of apoptosis in human PANC1 cells assessed as cleavage of PARP1 when photoirradiated at 7.2 J/cm2 by Western blot analysis; format: functional, cell-based
[35] = Drug uptake in mouse NIH/3T3 cells at 5 uM and 4 degree C after 16 hrs by FACS analysis relative to 37 degree C; format: ADME, cell-based; settings: nih3t3, 16 h
Quadruplex DNA [36] = assay: Binding affinity to human KRAS utr-z RNA g-quadruplex assessed as compound-RNA complex stoichiometry ratio of 9:1 by Job's plot analysis; format: nucleic-acid assay
Quadruplex DNA [37] = assay: Binding affinity to human KRAS utr-1 RNA g-quadruplex by fluorescence spectroscopy; format: nucleic-acid assay
PANC-1 [38] = assay: Induction of apoptosis in human PANC1 cells assessed as late apoptotic cells at 5 nM and photoirradiated at 7.2 J/cm2 measured after 6 to 24 hrs by annexin-V-propidium iodide staining based FACScalibur flow cytometry analysis (reference value: 3.6 %); format: functional
Quadruplex DNA [39] = assay: Binding affinity to human KRAS utr-c RNA g-quadruplex by fluorescence spectroscopy; format: nucleic-acid assay

GTPase NRas (Homo sapiens), sequence (P01111 whole entry): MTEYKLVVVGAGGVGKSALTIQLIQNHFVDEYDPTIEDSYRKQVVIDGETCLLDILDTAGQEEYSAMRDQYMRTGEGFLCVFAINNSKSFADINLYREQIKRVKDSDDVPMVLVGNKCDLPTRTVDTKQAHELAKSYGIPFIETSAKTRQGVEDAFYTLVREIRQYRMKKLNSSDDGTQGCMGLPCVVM
GTPase KRas (Homo sapiens), sequence (P01116 whole entry, looked up): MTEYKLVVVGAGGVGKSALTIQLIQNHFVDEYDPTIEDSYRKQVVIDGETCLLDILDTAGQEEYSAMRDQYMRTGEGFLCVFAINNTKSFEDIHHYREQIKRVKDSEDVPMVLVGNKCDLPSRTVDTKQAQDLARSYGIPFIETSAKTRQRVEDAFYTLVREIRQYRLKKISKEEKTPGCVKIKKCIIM

Structure (SMILES): CCCCCCCCCCCCCCCC[n+]1ccc(-c2c3nc(c(-c4cc[n+](C)cc4)c4ccc([nH]4)c(-c4cc[n+](C)cc4)c4nc(c(-c5cc[n+](C)cc5)c5ccc2[nH]5)C=C4)C=C3)cc1.[I-].[I-].[I-].[I-]
- Activity (PANC-1 [1]): Active
- Activity (HEK293): Non-Toxic
- Kd [2]: 56 to 98 nM
- Activity (MIA PaCa-2): Active
- EC50 (PANC-1 [3]): 19.2 nM
- Activity (PANC-1 [4]): inactive
- Kd (Quadruplex DNA [5]): 82 to 202 nM

Structure (SMILES): CCCCCCCCCCCCCCCCCC[n+]1ccc(-c2c3nc(c(-c4cc[n+](C)cc4)c4ccc([nH]4)c(-c4cc[n+](C)cc4)c4nc(c(-c5cc[n+](C)cc5)c5ccc2[nH]5)C=C4)C=C3)cc1.[I-].[I-].[I-].[I-]
- Drug uptake [6]: Active
- Activity (PANC-1 [7]): 5.77%
- Drug uptake [8]: 47%
- Drug uptake [9]: Not Active
- Activity (PANC-1 [10]): 4.03%
- Drug uptake [11]: Active
- Activity (PANC-1 [1]): Active
- Activity (PANC-1 [12]): 3.03%
- Activity (PANC-1 [13]): 11.43%
- inhibition [14]: inactive
- Drug uptake [15]: Active
- viability at 0.01 µM (PANC-1 [16]): 81.5%
- Activity (PANC-1 [17]): 3.53%
- inhibition [18]: inactive
- Activity (HEK293): Non-Toxic
- Kd [2]: 56 to 98 nM
- viability at 0.015 µM (PANC-1 [19]): 75.1%
- inhibition [20]: Active
- Activity [21]: Active
- Kd (Quadruplex DNA [22]): 32 nM
- inhibition [23]: 20%
- Kd (Quadruplex DNA [24]): 99 nM
- Activity (PANC-1 [25]): 2.1%
- Activity (PANC-1 [26]): 15.63%
- inhibition [27]: Active
- Activity (MIA PaCa-2): Active
- Activity (PANC-1 [28]): 7.35%
- Drug uptake [29]: Active
- Activity (PANC-1 [30]): Active
- viability at 0.005 µM (PANC-1 [31]): 78.2%
- inhibition [32]: 50%
- Activity (PANC-1 [33]): Active
- Activity (PANC-1 [34]): Active
- EC50 (PANC-1 [3]): 16.4 nM
- Drug uptake [35]: Active
- Activity (Quadruplex DNA [36]): Active
- Activity (PANC-1 [4]): inactive
- Kd (Quadruplex DNA [37]): 150 nM
- Activity (PANC-1 [38]): 12.4%
- Kd (Quadruplex DNA [39]): 188 nM
- Kd (Quadruplex DNA [5]): 82 to 202 nM

Structure (SMILES): CCCCCCCCCCCC[n+]1ccc(-c2c3nc(c(-c4cc[n+](C)cc4)c4ccc([nH]4)c(-c4cc[n+](C)cc4)c4nc(c(-c5cc[n+](C)cc5)c5ccc2[nH]5)C=C4)C=C3)cc1.[I-].[I-].[I-].[I-]
- Activity (PANC-1 [1]): Active
- Activity (HEK293): Non-Toxic
- Kd [2]: 56 to 98 nM
- Activity (MIA PaCa-2): Active
- EC50 (PANC-1 [3]): 13.1 nM
- Activity (PANC-1 [4]): inactive
- Kd (Quadruplex DNA [5]): 82 to 202 nM

Source: ChEMBL document CHEMBL4376882, “Photodynamic Therapy for ras-Driven Cancers: Targeting G-Quadruplex RNA Structures with Bifunctional Alkyl-Modified Porphyrins” (J Med Chem, 2020)
